# Assay results taken from ChEMBL document CHEMBL1201862, “PubChem BioAssay data set” (2004).
# Activity calls are given as the source filed them.
# Columns and labels:
# Estrogen receptor beta [1] = biological target: T1, Estrogen receptor beta (Homo sapiens, UniProt Q92731); experiment: blockers of SRC-3 recruitment to ERβ – biochemical, ELISA, streptavidin-HRP readout, orthogonal assay, confirmation (AID 1060)
# Estrogen receptor beta [2] = biological target: T1, Estrogen receptor beta
# Streptokinase A = biological target: T2, Streptokinase A (Streptococcus pyogenes serotype M1, UniProt P10520); experiment: viability-normalized secreted streptokinase activity reduction – plasminogen activation absorbance, OD405, dose response (AID 1914); type: functional, Streptococcus pyogenes M1 GAS;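 further: secreted streptokinase activity via plasminogen activation per viability signal from cell pellet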
# T2 sequence (P10520 whole entry): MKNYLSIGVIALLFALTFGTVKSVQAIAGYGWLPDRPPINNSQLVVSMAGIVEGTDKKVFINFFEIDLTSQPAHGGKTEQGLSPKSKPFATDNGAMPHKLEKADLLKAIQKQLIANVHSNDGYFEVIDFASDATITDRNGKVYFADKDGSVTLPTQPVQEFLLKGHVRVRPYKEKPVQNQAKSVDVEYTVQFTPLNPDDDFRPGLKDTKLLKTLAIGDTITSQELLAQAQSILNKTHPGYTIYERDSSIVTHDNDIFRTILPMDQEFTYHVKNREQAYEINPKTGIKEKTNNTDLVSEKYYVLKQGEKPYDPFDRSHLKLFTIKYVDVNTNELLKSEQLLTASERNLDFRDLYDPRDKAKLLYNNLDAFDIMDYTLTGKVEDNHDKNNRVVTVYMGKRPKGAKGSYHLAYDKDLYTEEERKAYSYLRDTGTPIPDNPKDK
# Coagulation factor XII = biological target: T3, Coagulation factor XII (Homo sapiens, UniProt P00748); type: functional;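 further: activated factor XIIa alpha cleaving a fluorogenic AMC peptide substrate; inhibitor potency from loss of enzyme activity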
# T3 sequence (P00748 whole entry): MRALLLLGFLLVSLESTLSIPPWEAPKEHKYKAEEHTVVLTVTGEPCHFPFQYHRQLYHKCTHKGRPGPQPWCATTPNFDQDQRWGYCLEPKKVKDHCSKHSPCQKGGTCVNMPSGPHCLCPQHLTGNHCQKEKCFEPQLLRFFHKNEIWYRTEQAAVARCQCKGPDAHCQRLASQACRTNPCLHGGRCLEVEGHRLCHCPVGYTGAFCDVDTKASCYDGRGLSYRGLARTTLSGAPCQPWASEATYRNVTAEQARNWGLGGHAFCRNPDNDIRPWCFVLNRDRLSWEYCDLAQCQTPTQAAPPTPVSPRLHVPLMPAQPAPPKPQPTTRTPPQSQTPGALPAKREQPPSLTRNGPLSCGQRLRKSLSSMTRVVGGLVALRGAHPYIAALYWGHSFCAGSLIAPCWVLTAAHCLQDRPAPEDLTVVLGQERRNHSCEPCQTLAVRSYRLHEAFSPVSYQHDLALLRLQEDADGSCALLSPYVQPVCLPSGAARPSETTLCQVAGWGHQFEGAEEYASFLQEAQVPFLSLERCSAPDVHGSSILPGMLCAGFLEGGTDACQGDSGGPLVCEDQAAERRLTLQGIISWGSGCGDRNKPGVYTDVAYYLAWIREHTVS
# [3] = system: Streptococcus sp. 'group A'; experiment: Streptococcus pyogenes SK(-)GAS viability under kanamycin – luminescence, BacTiterGlo, confirmation, counter-screen for streptokinase expression inhibitor project, dose response (AID 1900); type: functional, organism-based
# [4] = biological target: T4, Neuropeptide Y receptor type 2 (Homo sapiens, UniProt P49146); experiment: IC50 for human NPY-Y2 blockade – cell-based, counter-screen for NPY-Y1 antagonist project, dose response (AID 1278); type: functional
# T4 sequence (P49146 whole entry): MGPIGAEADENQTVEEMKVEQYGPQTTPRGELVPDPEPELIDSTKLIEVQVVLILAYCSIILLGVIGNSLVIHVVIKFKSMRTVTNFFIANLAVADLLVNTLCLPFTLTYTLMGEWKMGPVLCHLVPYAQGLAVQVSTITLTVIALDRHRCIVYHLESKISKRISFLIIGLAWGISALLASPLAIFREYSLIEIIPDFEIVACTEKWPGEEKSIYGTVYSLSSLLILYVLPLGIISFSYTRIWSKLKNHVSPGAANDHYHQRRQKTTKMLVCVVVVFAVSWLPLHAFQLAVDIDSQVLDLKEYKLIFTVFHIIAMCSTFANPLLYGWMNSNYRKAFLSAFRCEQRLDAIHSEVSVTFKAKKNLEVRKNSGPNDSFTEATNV
# [5] = biological target: T5, Neuropeptide Y receptor type 1 (Homo sapiens, UniProt P25929); experiment: IC50 of human NPY-Y1 blockers – cell-based, dose response (AID 1277); type: functional
# T5 sequence (P25929 whole entry): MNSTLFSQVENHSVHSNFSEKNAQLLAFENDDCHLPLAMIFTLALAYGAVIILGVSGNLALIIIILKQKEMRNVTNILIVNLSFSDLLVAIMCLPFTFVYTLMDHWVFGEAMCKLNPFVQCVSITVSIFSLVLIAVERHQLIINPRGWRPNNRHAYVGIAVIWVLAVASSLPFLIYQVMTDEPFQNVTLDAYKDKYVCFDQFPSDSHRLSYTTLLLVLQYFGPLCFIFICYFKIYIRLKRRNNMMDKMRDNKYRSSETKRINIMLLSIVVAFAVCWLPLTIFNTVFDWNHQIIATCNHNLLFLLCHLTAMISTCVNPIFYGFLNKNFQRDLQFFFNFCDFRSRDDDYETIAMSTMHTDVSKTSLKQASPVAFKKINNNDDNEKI
# [6] = HPDE-C7 pancreatic duct cell viability loss – fluorescence, HTS (AID 430); type: functional, cell-based; settings: Homo sapiens
# [7] = viability loss of HPDE-C7K cells – cell-based, fluorescence, HTS, primary screen (AID 431); type: functional; settings: Homo sapiens
# Streptococcus = experiment: GAS UMAA2166 growth inhibition – luminescence, BacTiterGlo, counter-screen for streptokinase expression inhibitor project, dose response (AID 1915); type: functional, organism-based;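 further: potency for reduction of bacterial viability or growth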
# [8] = viability of uninfected HEp-2 cells – cell-based, HTS, cytotoxicity control for RSV inhibitor project, dose response (AID 2410); type: functional; settings: human respiratory syncytial virus
# [9] = loss of viability in HepG2 cells – cell-based, CellTiter-Glo, cherry-picked, cytotoxicity control for Shn3 inhibitor project, dose response (AID 624134); type: functional
# [10] = reduction of Shn3 3'UTR-driven luciferase in osteoblasts – cell-based, Clone20 osteoblasts, firefly luciferase, cherry-picked, dose response (AID 624132); type: functional;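 further: firefly luciferase luminescence from reporter carrying the Shn3 3'UTR in osteoblasts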
# [11] = non-specific 3'UTR reporter inhibition in Clone20-Shn3RL – cell-based, Renilla luciferase, cherry-picked, counter-screen for Shn3 inhibitor project, dose response (AID 624133); type: functional
# [12] = biological target: T6, Replicative DNA helicase DnaB (Mycobacterium tuberculosis, UniProt P9WMR3); experiment: DnaB intein splicing inhibitors, dose response, biochemical, cell-free fluorescence (AID 449749); type: functional
# T6 sequence (P9WMR3 whole entry): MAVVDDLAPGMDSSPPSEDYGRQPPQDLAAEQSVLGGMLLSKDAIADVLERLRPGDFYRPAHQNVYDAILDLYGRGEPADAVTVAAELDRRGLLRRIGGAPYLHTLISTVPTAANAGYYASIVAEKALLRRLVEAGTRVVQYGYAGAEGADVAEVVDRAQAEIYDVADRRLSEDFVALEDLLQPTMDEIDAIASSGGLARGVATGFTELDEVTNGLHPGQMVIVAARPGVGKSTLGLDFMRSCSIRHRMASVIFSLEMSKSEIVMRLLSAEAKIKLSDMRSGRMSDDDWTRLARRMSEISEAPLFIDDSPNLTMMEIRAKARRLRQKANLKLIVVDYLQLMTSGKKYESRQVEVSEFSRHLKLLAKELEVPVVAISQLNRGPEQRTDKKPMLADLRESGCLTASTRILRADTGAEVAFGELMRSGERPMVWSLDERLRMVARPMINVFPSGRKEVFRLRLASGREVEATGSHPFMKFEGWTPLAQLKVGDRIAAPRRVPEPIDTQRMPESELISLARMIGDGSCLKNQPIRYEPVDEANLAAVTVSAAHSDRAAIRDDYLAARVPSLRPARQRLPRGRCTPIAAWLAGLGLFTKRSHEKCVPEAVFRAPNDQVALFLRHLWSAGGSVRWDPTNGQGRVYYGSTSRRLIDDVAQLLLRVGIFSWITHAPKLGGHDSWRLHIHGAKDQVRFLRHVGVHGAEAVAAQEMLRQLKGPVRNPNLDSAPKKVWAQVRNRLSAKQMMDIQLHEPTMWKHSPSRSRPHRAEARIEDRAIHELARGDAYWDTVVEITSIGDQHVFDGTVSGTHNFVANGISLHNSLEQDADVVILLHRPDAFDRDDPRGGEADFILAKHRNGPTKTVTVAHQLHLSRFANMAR
# Protein Tat = biological target: T7, Protein Tat (Human immunodeficiency virus type 1 group M subtype B (isolate HXB2)(HIV-1), UniProt P04608); type: functional;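 further: tat binding to TAR RNA read out by fluorescence polarization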
# T7 sequence (P04608 whole entry): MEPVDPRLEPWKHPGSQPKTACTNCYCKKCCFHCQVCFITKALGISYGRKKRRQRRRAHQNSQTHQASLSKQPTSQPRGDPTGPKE
# [13] = biological target: T8, Apoptotic protease-activating factor 1 (Homo sapiens, UniProt O14727); type: functional
# T8 sequence (O14727 whole entry): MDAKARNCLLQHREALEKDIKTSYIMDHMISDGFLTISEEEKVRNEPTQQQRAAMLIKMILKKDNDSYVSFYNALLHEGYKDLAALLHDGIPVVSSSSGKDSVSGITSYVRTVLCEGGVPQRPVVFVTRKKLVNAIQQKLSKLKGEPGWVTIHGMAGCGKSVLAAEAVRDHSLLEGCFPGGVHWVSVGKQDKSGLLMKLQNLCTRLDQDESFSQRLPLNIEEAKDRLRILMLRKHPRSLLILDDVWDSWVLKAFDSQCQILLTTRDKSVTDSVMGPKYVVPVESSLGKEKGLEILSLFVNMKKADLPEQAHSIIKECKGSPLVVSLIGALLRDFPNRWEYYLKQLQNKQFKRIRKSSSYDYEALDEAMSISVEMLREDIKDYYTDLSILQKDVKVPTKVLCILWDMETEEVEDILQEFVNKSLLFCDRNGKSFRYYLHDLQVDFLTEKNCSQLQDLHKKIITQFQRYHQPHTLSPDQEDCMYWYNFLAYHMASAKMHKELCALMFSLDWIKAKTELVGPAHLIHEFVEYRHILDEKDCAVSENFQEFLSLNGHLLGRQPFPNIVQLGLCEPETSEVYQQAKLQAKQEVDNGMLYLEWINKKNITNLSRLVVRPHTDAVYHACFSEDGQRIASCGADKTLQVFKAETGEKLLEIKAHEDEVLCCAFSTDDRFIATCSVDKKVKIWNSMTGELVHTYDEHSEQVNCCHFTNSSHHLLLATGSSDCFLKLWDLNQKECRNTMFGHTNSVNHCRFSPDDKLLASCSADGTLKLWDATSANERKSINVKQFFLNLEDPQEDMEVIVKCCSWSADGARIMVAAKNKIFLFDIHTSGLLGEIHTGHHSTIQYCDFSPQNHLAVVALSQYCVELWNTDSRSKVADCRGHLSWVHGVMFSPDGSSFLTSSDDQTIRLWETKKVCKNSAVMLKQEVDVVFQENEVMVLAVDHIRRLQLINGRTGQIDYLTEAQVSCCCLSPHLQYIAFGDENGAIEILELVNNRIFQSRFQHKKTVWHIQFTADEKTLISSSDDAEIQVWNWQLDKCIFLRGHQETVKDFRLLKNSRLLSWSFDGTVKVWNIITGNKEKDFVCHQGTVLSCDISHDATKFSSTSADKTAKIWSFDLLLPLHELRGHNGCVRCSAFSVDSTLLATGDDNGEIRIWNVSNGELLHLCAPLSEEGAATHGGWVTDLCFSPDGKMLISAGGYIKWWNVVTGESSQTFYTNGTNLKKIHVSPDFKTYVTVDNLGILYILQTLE
# Protein RecA = biological target: T9, Protein RecA (Mycobacterium tuberculosis, UniProt P9WHJ3); experiment: Fluorescence Cell-Free Homogeneous Dose Retest to Identify Inhibitors of RecA-Intein Splicing Activity. [Related pubchem assays (depositor defined):AID2097, AID2223, AID489010, AID492950]; type: functional
# T9 sequence (P9WHJ3 whole entry): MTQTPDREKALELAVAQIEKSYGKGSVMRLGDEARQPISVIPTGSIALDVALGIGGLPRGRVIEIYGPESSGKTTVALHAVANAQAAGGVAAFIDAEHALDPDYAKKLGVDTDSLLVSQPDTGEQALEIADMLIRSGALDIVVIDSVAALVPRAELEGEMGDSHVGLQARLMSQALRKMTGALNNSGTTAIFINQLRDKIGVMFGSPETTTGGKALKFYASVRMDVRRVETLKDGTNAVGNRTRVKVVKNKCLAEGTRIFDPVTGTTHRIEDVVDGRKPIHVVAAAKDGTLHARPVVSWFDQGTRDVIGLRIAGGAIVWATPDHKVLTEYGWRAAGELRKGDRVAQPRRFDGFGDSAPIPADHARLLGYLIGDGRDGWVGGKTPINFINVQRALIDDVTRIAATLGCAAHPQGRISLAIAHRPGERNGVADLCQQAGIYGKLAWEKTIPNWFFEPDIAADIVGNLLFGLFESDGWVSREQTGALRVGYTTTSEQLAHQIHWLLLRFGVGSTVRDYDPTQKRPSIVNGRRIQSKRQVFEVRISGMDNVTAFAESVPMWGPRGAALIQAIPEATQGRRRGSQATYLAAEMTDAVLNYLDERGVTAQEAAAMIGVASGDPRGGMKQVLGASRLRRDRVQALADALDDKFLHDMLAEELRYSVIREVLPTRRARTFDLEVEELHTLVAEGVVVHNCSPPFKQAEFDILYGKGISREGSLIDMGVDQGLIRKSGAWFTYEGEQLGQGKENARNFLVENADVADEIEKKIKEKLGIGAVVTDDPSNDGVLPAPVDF
# T1 sequence (Q92731 whole entry): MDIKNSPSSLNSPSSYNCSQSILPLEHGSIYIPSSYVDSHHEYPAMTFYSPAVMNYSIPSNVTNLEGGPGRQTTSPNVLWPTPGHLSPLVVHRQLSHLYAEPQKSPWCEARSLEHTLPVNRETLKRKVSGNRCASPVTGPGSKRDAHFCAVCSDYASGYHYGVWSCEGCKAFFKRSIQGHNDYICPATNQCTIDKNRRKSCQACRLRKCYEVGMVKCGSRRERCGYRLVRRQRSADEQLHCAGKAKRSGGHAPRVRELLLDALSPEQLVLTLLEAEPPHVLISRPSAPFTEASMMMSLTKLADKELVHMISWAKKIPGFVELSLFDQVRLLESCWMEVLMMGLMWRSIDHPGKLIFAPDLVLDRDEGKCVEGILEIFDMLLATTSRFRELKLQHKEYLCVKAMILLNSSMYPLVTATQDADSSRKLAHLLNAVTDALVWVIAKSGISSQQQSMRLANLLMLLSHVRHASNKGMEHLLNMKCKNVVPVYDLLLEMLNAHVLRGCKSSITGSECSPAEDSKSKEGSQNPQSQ
structure (smiles),measurement,setting,value
O=C(CSc1nnc(Nc2ccccc2F)s1)NCc1ccco1,IC50,Estrogen receptor beta [1],0.142 µM (not active)
same,IC50,Estrogen receptor beta [2],13.7 µM (active)
CC(NC(=O)Nc1nnc(C(F)(F)F)s1)(C(F)(F)F)C(F)(F)F,EC50,Streptokinase A,> 150 µM (not active)
same,IC50,Coagulation factor XII,> 50 µM (inactive)
same,EC50,[3],3.54 µM (active)
same,IC50,[4],> 35 µM (not active)
same,IC50,[5],> 35 µM (not active)
same,EC50,[6],8.76 µM (active)
same,EC50,[7],14.4 µM (active)
same,EC50,Streptococcus,7.84 µM (active)
CC(C)(C)n1nnnc1C(c1ccc(C(F)(F)F)cc1)N(Cc1ccccc1)Cc1ccco1 (stereo not drawn),CC50,[8],9.91 µM (active)
same,AC50,[9],44.1 µM (active)
same,AC50,[10],4.74 µM (active)
same,AC50,[11],6.74 µM (active)
same,IC50,[4],> 35 µM (not active)
same,IC50,[5],> 35 µM (not active)
N#CC(C(=O)Nc1ccccc1)=C1CCCCC1,IC50,Estrogen receptor beta [2],> 50 µM (not active)
NC(=O)Cc1c[nH]c2cccc(O)c12,IC50,Estrogen receptor beta [1],> 50 µM (not active)
Nc1ccc(Oc2ncccn2)cc1,AC50,[12],29.6 µM (active)
same,IC50,Protein Tat,> 100 µM (active)
same,IC50,[13],25.7 µM (active)
same,EC50,Protein RecA,13.8 µM (active)
O=S(=O)(Nc1ccc(N2CCOCC2)cc1)c1cccs1,IC50,Estrogen receptor beta [1],> 50 µM (not active)
